In the supplement of paper PMC10307832:

Legend:
Test in all cases: relative viability (nuclei count vs DMSO), 5 days (fraction); higher = more cells survive
BEN = tested on: BEN
In short: (§1)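 Lung cancer cell lines in 1536-well plates were dosed by pin tool the day after seeding, either with one drug alone or with a fixed anchor-drug dose plus five library-drug doses (not always all listed) in √10 steps. After 5 days, cells were fixed and their nuclei stained in one step (final 0.05% Triton X-100, 1% formaldehyde, 1 ug/ml Hoechst), then counted on 4× images. Relative viability is the nuclei count in treated wells divided by that in vehicle wells. Values are medians of duplicate plates.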

EKVX = tested on: EKVX
In short: as §1

EMC-BAC-2 = tested on: EMC-BAC-2
In short: as §1

EPLC-272H = tested on: EPLC-272H
In short: as §1

NCI-H596 = tested on: NCI-H596
In short: as §1

NCI-H460 = tested on: NCI-H460
In short: as §1

LXF-289 = tested on: LXF-289
In short: as §1

NCI-H2126 = tested on: NCI-H2126
In short: as §1

NCI-H1650 = tested on: NCI-H1650
In short: as §1

NCI-H358 = tested on: NCI-H358
In short: as §1

201T = tested on: 201T
In short: as §1

SW 1573 = tested on: SW 1573
In short: as §1

NCI-H1651 = tested on: NCI-H1651
In short: as §1

NCI-H2347 = tested on: NCI-H2347
In short: as §1

LCLC-103H = tested on: LCLC-103H
In short: as §1

NCI-H2087 = tested on: NCI-H2087
In short: as §1

HCC-827 = tested on: HCC-827
In short: as §1

NCI-H1793 = tested on: NCI-H1793
In short: as §1

COR-L23 = tested on: COR-L23
In short: as §1

NCI-H1915 = tested on: NCI-H1915
In short: as §1

A-427 = tested on: A-427
In short: as §1

LK-2 = tested on: LK-2
In short: as §1

HCC-44 = tested on: HCC-44
In short: as §1

`O=C(O)CCCCC(CCSCc1ccccc1)SCc1ccccc1` (centres undefined) [CPI-613] + CS(=O)(=O)N1CCN(Cc2cc3nc(-c4cccc5[nH]ncc45)nc(N4CCOCC4)c3s2)CC1 [Pictilisib] (partner 1 µM) showed a relative viability (BEN; first compound 5 µM) of 0.527, a relative viability (BEN; first compound 15.81 µM) of 0.423 and a relative viability (BEN; first compound 50 µM) of 0.503. The relative viability (BEN; first compound 158.11 µM) was 0.452, the relative viability (BEN; first compound 500 µM) was 0.495 and the relative viability (EKVX; first compound 5 µM) was 0.43. The relative viability (EKVX; first compound 15.81 µM) was 0.451, the relative viability (EKVX; first compound 50 µM) was 0.509 and the relative viability (EKVX; first compound 158.11 µM) was 0.415. The relative viability (EKVX; first compound 500 µM) was 0.406, the relative viability (EMC-BAC-2; first compound 5 µM) was 0.549 and the relative viability (EMC-BAC-2; first compound 15.81 µM) was 0.483. The relative viability (EMC-BAC-2; first compound 50 µM) was 0.556, the relative viability (EMC-BAC-2; first compound 158.11 µM) was 0.556 and the relative viability (EMC-BAC-2; first compound 500 µM) was 0.133. It also gave a relative viability (EPLC-272H; first compound 5 µM) of 0.251, a relative viability (EPLC-272H; first compound 15.81 µM) of 0.28 and a relative viability (EPLC-272H; first compound 50 µM) of 0.369. It also gave a relative viability (EPLC-272H; first compound 158.11 µM) of 0.246, a relative viability (EPLC-272H; first compound 500 µM) of 0.339 and a relative viability (NCI-H596; first compound 5 µM) of 0.423. The relative viability (NCI-H596; first compound 15.81 µM) was 0.442, the relative viability (NCI-H596; first compound 50 µM) was 0.435 and the relative viability (NCI-H596; first compound 158.11 µM) was 0.339. It also gave a relative viability (NCI-H596; first compound 500 µM) of 0.0372, a relative viability (NCI-H460; first compound 5 µM) of 0.353 and a relative viability (NCI-H460; first compound 15.81 µM) of 0.315. For the same compound, the relative viability (NCI-H460; first compound 50 µM) was 0.347, the relative viability (NCI-H460; first compound 158.11 µM) was 0.419 and the relative viability (NCI-H460; first compound 500 µM) was 0.342. For the same compound, the relative viability (LXF-289; first compound 5 µM) was 0.716, the relative viability (LXF-289; first compound 15.81 µM) was 0.752 and the relative viability (LXF-289; first compound 50 µM) was 0.728. It also gave a relative viability (LXF-289; first compound 158.11 µM) of 0.479, a relative viability (LXF-289; first compound 500 µM) of 0.0147 and a relative viability (NCI-H2126; first compound 5 µM) of 0.539. It also gave a relative viability (NCI-H2126; first compound 15.81 µM) of 0.457, a relative viability (NCI-H2126; first compound 50 µM) of 0.499 and a relative viability (NCI-H2126; first compound 158.11 µM) of 0.395. For the same compound, the relative viability (NCI-H2126; first compound 500 µM) was 0.393, the relative viability (NCI-H1650; first compound 5 µM) was 0.597 and the relative viability (NCI-H1650; first compound 15.81 µM) was 0.477. For the same compound, the relative viability (NCI-H1650; first compound 50 µM) was 0.638, the relative viability (NCI-H1650; first compound 158.11 µM) was 0.109 and the relative viability (NCI-H1650; first compound 500 µM) was 0.0271. It also gave a relative viability (NCI-H358; first compound 5 µM) of 0.355, a relative viability (NCI-H358; first compound 15.81 µM) of 0.292 and a relative viability (NCI-H358; first compound 50 µM) of 0.278. For the same compound, the relative viability (NCI-H358; first compound 158.11 µM) was 0.255, the relative viability (NCI-H358; first compound 500 µM) was 0.0276 and the relative viability (201T; first compound 5 µM) was 0.722. The relative viability (201T; first compound 15.81 µM) was 0.654, the relative viability (201T; first compound 50 µM) was 0.667 and the relative viability (201T; first compound 158.11 µM) was 0.665. For the same compound, the relative viability (201T; first compound 500 µM) was 0.647, the relative viability (SW 1573; first compound 5 µM) was 0.532 and the relative viability (SW 1573; first compound 15.81 µM) was 0.452. The relative viability (SW 1573; first compound 50 µM) was 0.554, the relative viability (SW 1573; first compound 158.11 µM) was 0.46 and the relative viability (SW 1573; first compound 500 µM) was 0.481. For the same compound, the relative viability (NCI-H1651; first compound 5 µM) was 0.591, the relative viability (NCI-H1651; first compound 15.81 µM) was 0.504 and the relative viability (NCI-H1651; first compound 50 µM) was 0.572. For the same compound, the relative viability (NCI-H1651; first compound 158.11 µM) was 0.331, the relative viability (NCI-H1651; first compound 500 µM) was 0.0986 and the relative viability (NCI-H2347; first compound 5 µM) was 0.524. It also gave a relative viability (NCI-H2347; first compound 15.81 µM) of 0.397, a relative viability (NCI-H2347; first compound 50 µM) of 0.705 and a relative viability (NCI-H2347; first compound 158.11 µM) of 0.144. It also gave a relative viability (NCI-H2347; first compound 500 µM) of 0.171, a relative viability (LCLC-103H; first compound 5 µM) of 0.55 and a relative viability (LCLC-103H; first compound 15.81 µM) of 0.578. The relative viability (LCLC-103H; first compound 50 µM) was 0.581, the relative viability (LCLC-103H; first compound 158.11 µM) was 0.539 and the relative viability (LCLC-103H; first compound 500 µM) was 0.653. For the same compound, the relative viability (NCI-H2087; first compound 5 µM) was 0.87, the relative viability (NCI-H2087; first compound 15.81 µM) was 0.702 and the relative viability (NCI-H2087; first compound 50 µM) was 0.733. The relative viability (NCI-H2087; first compound 158.11 µM) was 0.587, the relative viability (NCI-H2087; first compound 500 µM) was 0.0127 and the relative viability (HCC-827; first compound 5 µM) was 0.94. It also gave a relative viability (HCC-827; first compound 15.81 µM) of 0.964, a relative viability (HCC-827; first compound 50 µM) of 0.887 and a relative viability (HCC-827; first compound 158.11 µM) of 0.833. For the same compound, the relative viability (HCC-827; first compound 500 µM) was 0.79, the relative viability (NCI-H1793; first compound 5 µM) was 0.248 and the relative viability (NCI-H1793; first compound 50 µM) was 0.266. For the same compound, the relative viability (NCI-H1793; first compound 158.11 µM) was 0.205, the relative viability (NCI-H1793; first compound 500 µM) was 0.0326 and the relative viability (COR-L23; first compound 5 µM) was 0.639. The relative viability (COR-L23; first compound 15.81 µM) was 0.689, the relative viability (COR-L23; first compound 50 µM) was 0.621 and the relative viability (COR-L23; first compound 158.11 µM) was 0.393. It also gave a relative viability (COR-L23; first compound 500 µM) of 0.007, a relative viability (NCI-H1915; first compound 5 µM) of 0.988 and a relative viability (NCI-H1915; first compound 15.81 µM) of 0.719. The relative viability (NCI-H1915; first compound 50 µM) was 0.908, the relative viability (NCI-H1915; first compound 158.11 µM) was 0.927 and the relative viability (NCI-H1915; first compound 500 µM) was 0.503. It also gave a relative viability (A-427; first compound 5 µM) of 0.742, a relative viability (A-427; first compound 15.81 µM) of 0.696 and a relative viability (A-427; first compound 50 µM) of 0.66. It also gave a relative viability (A-427; first compound 158.11 µM) of 0.613, a relative viability (A-427; first compound 500 µM) of 0.737 and a relative viability (LK-2; first compound 5 µM) of 0.583. It also gave a relative viability (LK-2; first compound 15.81 µM) of 0.494, a relative viability (LK-2; first compound 50 µM) of 0.535 and a relative viability (LK-2; first compound 158.11 µM) of 0.554. For the same compound, the relative viability (LK-2; first compound 500 µM) was 0.472, the relative viability (HCC-44; first compound 5 µM) was 0.546 and the relative viability (HCC-44; first compound 15.81 µM) was 0.611. For the same compound, the relative viability (HCC-44; first compound 50 µM) was 0.589, the relative viability (HCC-44; first compound 158.11 µM) was 0.469 and the relative viability (HCC-44; first compound 500 µM) was 0.0534.
